{"source": "ChEMBL document CHEMBL1201862", "about": "“PubChem BioAssay data set” (2004)", "test_in_all_cases": "inhibition of tumour cell growth, NCI panel, 48 h", "key": {"HCC 2998": {"system": "HCC 2998"}, "U-251": {"system": "U-251"}, "T47D": {"system": "T47D"}, "KM12": {"system": "KM12"}, "SK-MEL-5": {"system": "SK-MEL-5"}, "HOP-62": {"system": "HOP-62"}, "SK-MEL-28": {"system": "SK-MEL-28"}, "HT-29": {"system": "HT-29"}, "BT-549": {"system": "BT-549"}, "LOX IMVI": {"system": "LOX IMVI"}, "786-0": {"system": "786-0"}, "SNB-75": {"system": "SNB-75"}, "OVCAR-3": {"system": "OVCAR-3"}, "SF-295": {"system": "SF-295"}, "IGROV-1": {"system": "IGROV-1"}, "OVCAR-4": {"system": "OVCAR-4"}, "SF-268": {"system": "SF-268"}, "SNB-19": {"system": "SNB-19"}, "SN12C": {"system": "SN12C"}, "NCI/ADR-RES": {"system": "NCI/ADR-RES"}, "DU-145": {"system": "DU-145"}, "HOP-92": {"system": "HOP-92"}, "Malme-3M": {"system": "Malme-3M"}, "CAKI-1": {"system": "CAKI-1"}, "HCT-116": {"system": "HCT-116"}, "MDA-N": {"system": "MDA-N"}, "CCRF-CEM": {"system": "CCRF-CEM"}, "UO-31": {"system": "UO-31"}, "PC-3": {"system": "PC-3"}, "OVCAR-5": {"system": "OVCAR-5"}, "SR": {"system": "SR"}, "Hs-578T": {"system": "Hs-578T"}, "MCF7": {"system": "MCF7"}, "A549": {"system": "A549"}, "A498": {"system": "A498"}, "SW-620": {"system": "SW-620"}, "NCI-H23": {"system": "NCI-H23"}, "OVCAR-8": {"system": "OVCAR-8"}, "K562": {"system": "K562"}, "HCT-15": {"system": "HCT-15"}, "SK-OV-3": {"system": "SK-OV-3"}, "COLO 205": {"system": "COLO 205"}, "UACC-257": {"system": "UACC-257"}, "NCI-H460": {"system": "NCI-H460"}, "NCI-H522": {"system": "NCI-H522"}, "NCI-H226": {"system": "NCI-H226"}, "SF-539": {"system": "SF-539"}, "RXF 393": {"system": "RXF 393"}, "RPMI-8226": {"system": "RPMI-8226"}, "M14": {"system": "M14"}, "TK-10": {"system": "TK-10"}, "MDA-MB-231": {"system": "MDA-MB-231"}, "MOLT-4": {"system": "MOLT-4"}, "UACC-62": {"system": "UACC-62"}, "ACHN": {"system": "ACHN"}, "EKVX": {"system": "EKVX"}, "HL-60": {"system": "HL-60"}, "MDA-MB-435": {"system": "MDA-MB-435"}, "SK-MEL-2": {"system": "SK-MEL-2"}}, "note": "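Step 1: Grow cells in 96-well plates. Step 2: Expose to compound for 48 hours at 5 concentrations. Step 3: Interpolate endpoints linearly; if unreached, use highest concentration. The concentration for 50% growth inhibition is given as GI50.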 The source made the active and inactive calls. No stated cut-off is given here; in the data, active = GI50 up to about 1.1 µM and inactive = higher."}
{"molecule": "CCO/C=C1\\SC(=S)N(c2ccc(OCC)cc2)C1=O", "values": [{"measurement": "GI50", "setting": "HCC 2998", "result": "52.5 µM (inactive)"}, {"measurement": "GI50", "setting": "U-251", "result": "48 µM (inactive)"}, {"measurement": "GI50", "setting": "T47D", "result": "28.9 µM (inactive)"}, {"measurement": "GI50", "setting": "KM12", "result": "50.8 µM (inactive)"}, {"measurement": "GI50", "setting": "SK-MEL-5", "result": "76.7 µM (inactive)"}, {"measurement": "GI50", "setting": "HOP-62", "result": "> 100 µM (inactive)"}, {"measurement": "GI50", "setting": "SK-MEL-28", "result": "> 100 µM (inactive)"}, {"measurement": "GI50", "setting": "HT-29", "result": "> 100 µM (inactive)"}, {"measurement": "GI50", "setting": "BT-549", "result": "> 100 µM (inactive)"}, {"measurement": "GI50", "setting": "LOX IMVI", "result": "83.6 µM (inactive)"}, {"measurement": "GI50", "setting": "786-0", "result": "> 100 µM (inactive)"}, {"measurement": "GI50", "setting": "SNB-75", "result": "18.9 µM (inactive)"}, {"measurement": "GI50", "setting": "OVCAR-3", "result": "> 100 µM (inactive)"}, {"measurement": "GI50", "setting": "SF-295", "result": "95.3 µM (inactive)"}, {"measurement": "GI50", "setting": "IGROV-1", "result": "> 100 µM (inactive)"}, {"measurement": "GI50", "setting": "OVCAR-4", "result": "57 µM (inactive)"}, {"measurement": "GI50", "setting": "SF-268", "result": "> 100 µM (inactive)"}, {"measurement": "GI50", "setting": "SNB-19", "result": "> 100 µM (inactive)"}, {"measurement": "GI50", "setting": "SN12C", "result": "> 100 µM (inactive)"}, {"measurement": "GI50", "setting": "NCI/ADR-RES", "result": "> 100 µM (inactive)"}, {"measurement": "GI50", "setting": "DU-145", "result": "51.4 µM (inactive)"}, {"measurement": "GI50", "setting": "HOP-92", "result": "71.4 µM (inactive)"}, {"measurement": "GI50", "setting": "Malme-3M", "result": "85.7 µM (inactive)"}, {"measurement": "GI50", "setting": "CAKI-1", "result": "55.7 µM (inactive)"}, {"measurement": "GI50", "setting": "HCT-116", "result": "> 100 µM (inactive)"}, {"measurement": "GI50", "setting": "MDA-N", "result": "45.2 µM (inactive)"}, {"measurement": "GI50", "setting": "CCRF-CEM", "result": "54 µM (inactive)"}, {"measurement": "GI50", "setting": "UO-31", "result": "54.5 µM (inactive)"}, {"measurement": "GI50", "setting": "PC-3", "result": "57.1 µM (inactive)"}, {"measurement": "GI50", "setting": "OVCAR-5", "result": "> 100 µM (inactive)"}, {"measurement": "GI50", "setting": "SR", "result": "30.2 µM (inactive)"}, {"measurement": "GI50", "setting": "Hs-578T", "result": "39.9 µM (inactive)"}, {"measurement": "GI50", "setting": "MCF7", "result": "75.5 µM (inactive)"}, {"measurement": "GI50", "setting": "A549", "result": "> 100 µM (inactive)"}, {"measurement": "GI50", "setting": "A498", "result": "80.4 µM (inactive)"}, {"measurement": "GI50", "setting": "SW-620", "result": "> 100 µM (inactive)"}, {"measurement": "GI50", "setting": "NCI-H23", "result": "> 100 µM (inactive)"}, {"measurement": "GI50", "setting": "OVCAR-8", "result": "> 100 µM (inactive)"}, {"measurement": "GI50", "setting": "K562", "result": "44.6 µM (inactive)"}, {"measurement": "GI50", "setting": "HCT-15", "result": 72.4, "unit": "µM"}, {"measurement": "GI50", "setting": "SK-OV-3", "result": "> 100 µM (inactive)"}, {"measurement": "GI50", "setting": "COLO 205", "result": "> 100 µM (inactive)"}, {"measurement": "GI50", "setting": "UACC-257", "result": "78.7 µM (inactive)"}, {"measurement": "GI50", "setting": "NCI-H460", "result": "> 100 µM (inactive)"}, {"measurement": "GI50", "setting": "NCI-H522", "result": "67.3 µM (inactive)"}, {"measurement": "GI50", "setting": "NCI-H226", "result": "69.7 µM (inactive)"}, {"measurement": "GI50", "setting": "SF-539", "result": "44.9 µM (inactive)"}, {"measurement": "GI50", "setting": "RXF 393", "result": "33.3 µM (inactive)"}, {"measurement": "GI50", "setting": "RPMI-8226", "result": "41.5 µM (inactive)"}, {"measurement": "GI50", "setting": "M14", "result": "97.5 µM (inactive)"}, {"measurement": "GI50", "setting": "TK-10", "result": "90.4 µM (inactive)"}, {"measurement": "GI50", "setting": "MDA-MB-231", "result": "> 100 µM (inactive)"}, {"measurement": "GI50", "setting": "MOLT-4", "result": "43.1 µM (inactive)"}, {"measurement": "GI50", "setting": "UACC-62", "result": "68.4 µM (inactive)"}, {"measurement": "GI50", "setting": "ACHN", "result": "> 100 µM (inactive)"}, {"measurement": "GI50", "setting": "EKVX", "result": "> 100 µM (inactive)"}, {"measurement": "GI50", "setting": "HL-60", "result": "> 100 µM (inactive)"}, {"measurement": "GI50", "setting": "MDA-MB-435", "result": "78.5 µM (inactive)"}, {"measurement": "GI50", "setting": "SK-MEL-2", "result": "59.4 µM (inactive)"}]}
